Laboratory results taken from the NIST ThermoML archive (doi:10.1021/acs.jced.7b00347).
± gives the expanded uncertainty stated by the source.

Assay: mn = molality of the nth substance listed, in mol/kg
Conditions: for surface tension liquid-gas: Ring tensiometer; for electrical conductivity: 100 kPa, Liquid, Alternating current cell with electrodes

CCCCCCCC[NH+](CCO)CC(C)O.[Cl-] (stereo not given) + O
Conditions | electrical conductivity [S/m] | surface tension liquid-gas [mN/m]
303.15 K, m1 = 1.867e-05 | – | 53.53 ± 0.7
303.15 K, m1 = 1.87e-05 | 0.00091 ± 5.1e-05 | –
303.15 K, m1 = 3.73e-05 | 0.00101 ± 5.6e-05 | –
303.15 K, m1 = 3.733e-05 | – | 47.58 ± 0.63
303.15 K, m1 = 5.6e-05 | 0.0011 ± 6.1e-05 | –
303.15 K, m1 = 7.47e-05 | 0.0012 ± 6.6e-05 | –
303.15 K, m1 = 9.33e-05 | 0.00129 ± 8.2e-05 | –
303.15 K, m1 = 9.334e-05 | – | 40.08 ± 0.54
303.15 K, m1 = 0.000112 | 0.00139 ± 8e-05 | –
303.15 K, m1 = 0.0001307 | 0.00149 ± 8.3e-05 | –
303.15 K, m1 = 0.0001493 | 0.00158 ± 8.8e-05 | –
303.15 K, m1 = 0.000168 | 0.00168 ± 9.3e-05 | –
303.15 K, m1 = 0.0001867 | 0.00177 ± 9.8e-05 | 34.17 ± 0.48
303.15 K, m1 = 0.0002053 | 0.00187 ± 0.00029 | –
303.15 K, m1 = 0.000224 | 0.00197 ± 0.00011 | –
303.15 K, m1 = 0.0002427 | 0.00206 ± 0.00012 | –
303.15 K, m1 = 0.0002614 | 0.00216 ± 0.00012 | –
303.15 K, m1 = 0.00028 | 0.00225 ± 0.00015 | 31.17 ± 0.45
303.15 K, m1 = 0.0002987 | 0.00235 ± 0.00033 | –
303.15 K, m1 = 0.0003174 | 0.00245 ± 0.00014 | –
303.15 K, m1 = 0.000336 | 0.00254 ± 0.00014 | –
303.15 K, m1 = 0.0003472 | – | 29.47 ± 0.43
303.15 K, m1 = 0.0003547 | 0.00264 ± 0.00017 | –
303.15 K, m1 = 0.0003734 | 0.00273 ± 0.00015 | –
303.15 K, m1 = 0.000392 | 0.00283 ± 0.00017 | –
303.15 K, m1 = 0.0004166 | 0.00292 ± 0.0016 | –
303.15 K, m1 = 0.0004412 | 0.00302 ± 0.00017 | –
303.15 K, m1 = 0.000448 | – | 29.31 ± 0.43
303.15 K, m1 = 0.0004658 | 0.00311 ± 0.00017 | –
303.15 K, m1 = 0.0004905 | 0.00321 ± 0.00018 | –
303.15 K, m1 = 0.0005151 | 0.0033 ± 0.00021 | –
303.15 K, m1 = 0.0005397 | 0.0034 ± 0.00019 | –
303.15 K, m1 = 0.0005643 | 0.00349 ± 0.00019 | –
303.15 K, m1 = 0.0005889 | 0.00359 ± 0.0002 | –
303.15 K, m1 = 0.0006135 | 0.00368 ± 0.0002 | –
303.15 K, m1 = 0.0006381 | 0.00378 ± 0.00021 | –
303.15 K, m1 = 0.0006627 | 0.00387 ± 0.00021 | –
303.15 K, m1 = 0.0006873 | 0.00397 ± 0.00022 | –
303.15 K, m1 = 0.0007119 | 0.00406 ± 0.00022 | –
303.15 K, m1 = 0.0007365 | 0.00416 ± 0.00023 | –
303.15 K, m1 = 0.0007611 | 0.00425 ± 0.00023 | –
303.15 K, m1 = 0.0007857 | 0.00435 ± 0.00024 | –
303.15 K, m1 = 0.0008104 | 0.00444 ± 0.00024 | –
303.15 K, m1 = 0.000835 | 0.00454 ± 0.00025 | –
303.15 K, m1 = 0.0008596 | 0.00463 ± 0.00026 | –
303.15 K, m1 = 0.0008842 | 0.00473 ± 0.00026 | –
303.15 K, m1 = 0.0009088 | 0.00482 ± 0.00027 | –
303.15 K, m1 = 0.0009334 | 0.00492 ± 0.00027 | 28.79 ± 0.43
303.15 K, m1 = 0.001867 | – | 28.54 ± 0.42
303.15 K, m1 = 0.0028 | – | 28.22 ± 0.42
303.15 K, m1 = 0.003733 | – | 28.02 ± 0.42
308.15 K, m1 = 1.867e-05 | – | 51.25 ± 0.67
308.15 K, m1 = 1.87e-05 | 0.00111 ± 6.2e-05 | –
308.15 K, m1 = 3.733e-05 | – | 45.75 ± 0.61
308.15 K, m1 = 4.28e-05 | 0.00126 ± 7.1e-05 | –
308.15 K, m1 = 6.7e-05 | 0.00141 ± 8e-05 | –
308.15 K, m1 = 9.11e-05 | 0.00156 ± 9e-05 | –
308.15 K, m1 = 9.334e-05 | – | 38.42 ± 0.53
308.15 K, m1 = 0.0001152 | 0.00171 ± 9.9e-05 | –
308.15 K, m1 = 0.0001394 | 0.00186 ± 0.00011 | –
308.15 K, m1 = 0.0001635 | 0.00201 ± 0.00012 | –
308.15 K, m1 = 0.0001867 | – | 32.93 ± 0.47
308.15 K, m1 = 0.0001877 | 0.00216 ± 0.00013 | –
308.15 K, m1 = 0.0002118 | 0.00231 ± 0.00014 | –
308.15 K, m1 = 0.000236 | 0.00246 ± 0.00015 | –
308.15 K, m1 = 0.0002601 | 0.00261 ± 0.00016 | –
308.15 K, m1 = 0.0002842 | 0.00276 ± 0.00017 | –
308.15 K, m1 = 0.0002949 | – | 29.72 ± 0.44
308.15 K, m1 = 0.0003084 | 0.00291 ± 0.00018 | –
308.15 K, m1 = 0.0003325 | 0.00306 ± 0.00019 | –
308.15 K, m1 = 0.0003472 | – | 28.63 ± 0.43
308.15 K, m1 = 0.0003567 | 0.00321 ± 0.0002 | –
308.15 K, m1 = 0.0003808 | 0.00336 ± 0.00021 | 28.46 ± 0.42
308.15 K, m1 = 0.0004099 | 0.00348 ± 0.00022 | –
308.15 K, m1 = 0.000439 | 0.0036 ± 0.00023 | –
308.15 K, m1 = 0.0004681 | 0.00373 ± 0.00023 | –
308.15 K, m1 = 0.0004972 | 0.00385 ± 0.00024 | –
308.15 K, m1 = 0.0005262 | 0.00397 ± 0.00025 | –
308.15 K, m1 = 0.0005553 | 0.0041 ± 0.00026 | –
308.15 K, m1 = 0.0005844 | 0.00422 ± 0.00026 | –
308.15 K, m1 = 0.0006135 | 0.00434 ± 0.00026 | –
308.15 K, m1 = 0.0006426 | 0.00447 ± 0.00027 | –
308.15 K, m1 = 0.0006716 | 0.00459 ± 0.00028 | –
308.15 K, m1 = 0.0007007 | 0.00471 ± 0.00028 | –
308.15 K, m1 = 0.0007298 | 0.00483 ± 0.00029 | –
308.15 K, m1 = 0.0007589 | 0.00496 ± 0.0003 | –
308.15 K, m1 = 0.000788 | 0.00508 ± 0.0003 | –
308.15 K, m1 = 0.0008171 | 0.0052 ± 0.00031 | –
308.15 K, m1 = 0.0008461 | 0.00533 ± 0.00031 | –
308.15 K, m1 = 0.0008752 | 0.00545 ± 0.00032 | –
308.15 K, m1 = 0.0009043 | 0.00557 ± 0.00032 | –
308.15 K, m1 = 0.0009334 | 0.0057 ± 0.00033 | 27.95 ± 0.42
308.15 K, m1 = 0.001867 | – | 27.78 ± 0.42
308.15 K, m1 = 0.0028 | – | 27.44 ± 0.41
308.15 K, m1 = 0.003733 | – | 27.36 ± 0.41
